According to the NIST ThermoML archive (doi:10.1021/acs.jced.9b00607):
Numbers after ± are expanded uncertainties.

Tests used:
[1] = 102 kPa, Liquid; for viscosity: Falling or rolling sphere viscometry; for mass density: Vibrating tube method
[2] = wn = mass fraction of the nth substance listed; conditions: 102 kPa, Liquid, w2 = 0; for viscosity: Falling or rolling sphere viscometry; for mass density: Vibrating tube method

OCCO [1,2-ethanediol]
[1]
Conditions	mass density [kg/m3]	viscosity [mPa·s]
283.15 K	1120 ± 0.2	34.07 ± 4.1
298.15 K	–	17.27 ± 1.1
313.15 K	1099.1 ± 0.3	9.69 ± 1.1
323.15 K	1091.6 ± 0.1	6.81 ± 0.36
333.15 K	1085 ± 0.1	5.28 ± 0.47
343.15 K	1077.6 ± 0.1	4.06 ± 0.46
353.15 K	1070.1 ± 0.1	3.21 ± 0.31

OCCO [1,2-ethanediol] + CN(CCO)CCO
[2]
Conditions	mass density [kg/m3]	viscosity [mPa·s]
283.15 K	1120 ± 0.2	34.07 ± 4.1
298.15 K	–	17.27 ± 1.1
313.15 K	1099.1 ± 0.3	9.69 ± 1.1
323.15 K	1091.6 ± 0.1	6.81 ± 0.36
333.15 K	1085 ± 0.1	5.28 ± 0.47
343.15 K	1077.6 ± 0.1	4.06 ± 0.46
353.15 K	1070.1 ± 0.1	3.21 ± 0.31

O [water]
[1]
Conditions	mass density [kg/m3]	viscosity [mPa·s]
283.15 K	999.9 ± 0.1	1.32 ± 0.01
298.15 K	997.2 ± 0.1	0.91 ± 0.01
313.15 K	992.3 ± 0.1	0.67 ± 0.01
323.15 K	988.3 ± 0.1	0.57 ± 0.01
333.15 K	983.5 ± 0.1	–
343.15 K	978.1 ± 0.1	–
353.15 K	972.3 ± 0.1	–

CN(CCO)CCO [N-methyldiethanolamine]
[1]
Conditions	mass density [kg/m3]	viscosity [mPa·s]
283.15 K	1048 ± 0.3	198.15 ± 9.4
298.15 K	1036.8 ± 0.3	74.87 ± 1.5
313.15 K	1025.3 ± 0.3	35.05 ± 1.1
323.15 K	1017.7 ± 0.2	21.96 ± 0.43
333.15 K	1010 ± 0.2	14.83 ± 0.49
343.15 K	1002.2 ± 0.2	10.29 ± 0.54
353.15 K	994.5 ± 0.2	7.4 ± 0.32
